According to the CheMixHub viscosity set:

Assay: xn = mol fraction of the nth substance listed

CCCCCCCCCCCCCC[P+](CCCCCC)(CCCCCC)CCCCCC.c1c[n-]nn1 + CCCCn1cc[n+](C)c1.O=S(=O)([N-]S(=O)(=O)C(F)(F)F)C(F)(F)F
viscosity [mPa·s], 100 kPa
Conditions	293.15 K	298.15 K	303.15 K	308.15 K	313.15 K	318.15 K	323.15 K
x1 = 0.1	98	77	61	49	–	–	–
x1 = 0.2	164	123	96	76	62	50	–
x1 = 0.278	242	178	135	107	84	68	56
x1 = 0.612	602	428	311	231	174	135	107
x1 = 0.699	663	468	339	252	190	147	115
x1 = 0.8	723	507	368	273	205	158	125
x1 = 0.9	685	486	353	263	199	154	123

CCC(=O)O + CCCO
308.15 K, 101 kPa
Conditions	viscosity [mPa·s]
x1 = 0.0416	1.42
x1 = 0.084	1.443
x1 = 0.1244	1.439
x1 = 0.1683	1.368
x1 = 0.2579	1.351
x1 = 0.3504	1.328
x1 = 0.4481	1.289
x1 = 0.5489	1.242
x1 = 0.6538	1.178
x1 = 0.7644	1.096
x1 = 0.8223	1.055
x1 = 0.8798	1.006
x1 = 0.9384	0.9669

O=C(O)c1ccccc1O + CCCO
viscosity [mPa·s]
Conditions	308.15 K	313.15 K	318.15 K	323.15 K
101 kPa, x1 = 0.133	2.13	–	–	1.51
101 kPa, x1 = 0.16	2.236	–	–	1.602
101 kPa, x1 = 0.179	2.427	–	–	1.69
101 kPa, x1 = 0.191	2.4	–	–	1.722
101.33 kPa, x1 = 0.16	2.236	2.012	1.791	1.602
101.33 kPa, x1 = 0.19	–	2.17	1.929	1.722

CCC(=O)O + CCO
308.15 K, 101 kPa
Conditions	viscosity [mPa·s]
x1 = 0.0674	1.035
x1 = 0.1373	1.062
x1 = 0.2156	1.095
x1 = 0.2983	1.125
x1 = 0.3898	1.151
x1 = 0.4885	1.167
x1 = 0.5987	1.16
x1 = 0.7173	1.119
x1 = 0.7834	1.081
x1 = 0.8532	1.043
x1 = 0.9225	0.9581

Nc1cccc(Cl)c1 + CCOCCO
303.15 K, 101 kPa
Conditions	viscosity [mPa·s]
x1 = 0.0966	2.028
x1 = 0.1696	2.159
x1 = 0.2725	2.333
x1 = 0.3613	2.473
x1 = 0.4791	2.643
x1 = 0.5648	2.755
x1 = 0.68	2.897
x1 = 0.7804	3.008
x1 = 0.8884	3.121

CC(=O)CCC(=O)O + CC[N+](CC)(CC)CC.[Br-]
101 kPa, x1 = 0.75
Conditions	viscosity [mPa·s]
293.15 K	149
303.15 K	76.98
313.15 K	42.42
323.15 K	28.81

CCC(=O)O + CCc1ccccc1
308.15 K, 101.33 kPa
Conditions	viscosity [mPa·s]
x1 = 0.1393	0.5916
x1 = 0.2634	0.6031
x1 = 0.3813	0.6196
x1 = 0.4881	0.6386
x1 = 0.5891	0.6621
x1 = 0.6835	0.6881
x1 = 0.7694	0.721
x1 = 0.8518	0.7666
x1 = 0.9275	0.8175

CCC(=O)O + CO
308.15 K, 101 kPa
Conditions	viscosity [mPa·s]
x1 = 0.0467	0.5336
x1 = 0.0975	0.5843
x1 = 0.157	0.6175
x1 = 0.2234	0.6789
x1 = 0.3021	0.7413
x1 = 0.3923	0.8094
x1 = 0.5024	0.9055
x1 = 0.6344	0.9763
x1 = 0.7111	1.021
x1 = 0.7964	0.9955
x1 = 0.8919	0.9369

O=C(O)c1ccccc1O + CO
viscosity [mPa·s]
Conditions	308.15 K	313.15 K	318.15 K	323.15 K
101 kPa, x1 = 0.13	1.049	–	–	0.8273
101 kPa, x1 = 0.14	1.086	–	–	0.8572
101 kPa, x1 = 0.15	1.118	–	–	0.8818
101 kPa, x1 = 0.17	1.262	–	–	0.9692
101.33 kPa, x1 = 0.13	1.049	0.9732	0.8932	0.8273
101.33 kPa, x1 = 0.15	1.118	1.036	0.9552	0.8818

CC12CCC(CC1)C(C)(C)O2 + COC(C)(C)C
298.15 K, 101.33 kPa
Conditions	viscosity [mPa·s]
x2 = 0.039	2.365
x2 = 0.1663	1.833
x2 = 0.2659	1.491
x2 = 0.379	1.188
x2 = 0.4562	1.02
x2 = 0.5768	0.7958
x2 = 0.6621	0.6632
x2 = 0.7385	0.5702
x2 = 0.8408	0.4604
x2 = 0.902	0.4049
x2 = 0.9701	0.3547

Nc1cccc(Cl)c1 + COCCO
303.15 K, 101 kPa
Conditions	viscosity [mPa·s]
x1 = 0.0687	2.116
x1 = 0.1403	2.27
x1 = 0.238	2.434
x1 = 0.3592	2.586
x1 = 0.4287	2.72
x1 = 0.5233	2.844
x1 = 0.6416	2.949
x1 = 0.7401	3.05
x1 = 0.8794	3.143

CCCCCCCCCCCCCC[P+](CCCCCC)(CCCCCC)CCCCCC.c1c[n-]nn1 + COCCOCCOCCOCCOC
viscosity [mPa·s], 100 kPa
Conditions	293.15 K	298.15 K	303.15 K	308.15 K	313.15 K	318.15 K	323.15 K
x1 = 0.499	80	65	53	–	–	–	–
x1 = 0.602	118	93	74	62	51	–	–
x1 = 0.69	172	134	106	85	69	57	–
x1 = 0.793	250	190	147	116	93	76	63
x1 = 0.878	358	266	201	156	123	99	81
x1 = 0.917	400	294	221	170	133	106	86

CC(=O)CCC(=O)O + C[N+](C)(C)CCO.[Cl-]
viscosity [mPa·s]
Conditions	293.15 K	298.15 K	303.15 K	308.15 K	313.15 K	318.15 K	323.15 K
100 kPa, x2 = 0.33	320.6	226.8	164.5	122.5	93.62	72.54	57.48
101 kPa, x1 = 0.75	134.2	–	79.14	–	47.76	–	31.29
101 kPa, x2 = 0.25	–	132.9	–	–	–	46.9	–
101 kPa, x2 = 0.333	–	207.8	–	–	–	68	–

CCC(=O)O + C[N+](C)(C)CCO.[Cl-]
101 kPa, x2 = 0.333
Conditions	viscosity [mPa·s]
293.15 K	70.98
298.15 K	55.91
303.15 K	44.79
308.15 K	36.45
313.15 K	30.06
318.15 K	25.09
323.15 K	21.19

CC12CCC(CC1)C(C)(C)O2 + Cc1ccc(O)cc1
viscosity [mPa·s], 101 kPa
Conditions	x1 = 0.065	x1 = 0.1353	x1 = 0.2115	x1 = 0.2943	x1 = 0.3849	x1 = 0.4841	x1 = 0.5935	x1 = 0.7145	x1 = 0.8492
303.15 K	10.05	10.4	10.3	9.855	8.969	7.588	6	4.552	3.36
308.15 K	8.061	8.368	8.359	8.056	7.332	6.325	5.03	3.799	2.854
313.15 K	6.612	6.841	6.808	6.617	6.12	5.364	4.313	3.244	2.467

CC12CCC(CC1)C(C)(C)O2 + Cc1cccc(O)c1
viscosity [mPa·s], 101 kPa
Conditions	x1 = 0.065	x1 = 0.1352	x1 = 0.2114	x1 = 0.2943	x1 = 0.3848	x1 = 0.4841	x1 = 0.5934	x1 = 0.7145	x1 = 0.8492
303.15 K	10.48	10.69	10.47	9.802	8.746	7.564	6.28	4.91	3.559
308.15 K	8.331	8.539	8.426	7.994	7.155	6.222	5.16	4.043	3.002
313.15 K	6.756	6.947	6.878	6.474	5.892	5.161	4.295	3.348	2.505

CCC(=O)O + Cc1ccccc1
viscosity [mPa·s], 101.33 kPa
Conditions	293.15 K	303.15 K	308.15 K	313.15 K	323.15 K
x1 = 0.1231	–	–	0.5358	–	–
x1 = 0.2366	–	–	0.5532	–	–
x1 = 0.3487	–	–	0.5721	–	–
x1 = 0.4523	–	–	0.597	–	–
x1 = 0.5546	–	–	0.6271	–	–
x1 = 0.6523	–	–	0.6628	–	–
x1 = 0.7435	–	–	0.702	–	–
x1 = 0.832	–	–	0.7411	–	–
x1 = 0.9187	–	–	0.8128	–	–
x2 = 0.0286	1.06	0.9144	–	0.8218	0.7431
x2 = 0.072	1.009	0.8713	–	0.7818	0.6965
x2 = 0.1175	0.967	0.8298	–	0.751	0.672
x2 = 0.1497	0.9304	0.7997	–	0.7176	0.6478
x2 = 0.2309	0.8623	0.7424	–	0.6663	0.5978
x2 = 0.3182	0.806	0.6911	–	0.6194	0.5682
x2 = 0.4118	0.7554	0.6539	–	0.5909	0.5342
x2 = 0.5137	0.7079	0.6205	–	0.5536	0.5047
x2 = 0.555	0.6938	0.6095	–	0.5469	0.4952
x2 = 0.6209	0.6768	0.5898	–	0.5292	0.4824
x2 = 0.6913	0.6606	0.5743	–	0.5131	0.4666
x2 = 0.7372	0.6419	0.5603	–	0.5035	0.4574
x2 = 0.787	0.6276	0.5507	–	0.494	0.4506
x2 = 0.8644	0.6088	0.5364	–	0.4799	0.4372
x2 = 0.9714	0.5928	0.5259	–	0.4684	0.4295

CCCCCCCN + Cc1ccccc1
303.15 K, 101 kPa
Conditions	viscosity [mPa·s]
x2 = 0.1243	0.8161
x2 = 0.2792	0.7217
x2 = 0.4418	0.6387
x2 = 0.5561	0.5933
x2 = 0.5995	0.58
x2 = 0.7025	0.5493
x2 = 0.7845	0.5305
x2 = 0.875	0.5139
x2 = 0.939	0.5173
